Drawing on PMC12494099, “Discovery and Characterization of Novel IKZF1/3 Glue Degraders against Multiple Hematological Cancer Cell Lines” (Oncology Research, 2025), this text covers IC50 for 15 compounds.

SMILES strings stand for the structures.

For one assay, the system named is MV-4-11. As to the kind of experiment: Cell viability (CCK-8) assay. It counts as cell-based. To be noted: Homo sapiens, MV4-11, 96 h, 96 h, CCK-8. Here is the method:
(§1) The plated at a density of 15,000 cells per well, and each well contained 100 µL of medium. Subsequently, different compounds (MGD-AX, MGD-BX, MGD-CX) were added to each well. […] To evaluate the antiproliferative effects of these compounds, the Cell Counting Kit-8 (CCK-8, #CX007, Epizyme, Shanghai, China) was used. All procedures were carried out in strict accordance with the manufacturer’s instructions (Dojindo Laboratories, Mamoto Ken, Japan).
Consider `Nc1cccc2c1CN(C1CCC(=O)NC1=O)C2=O` (stereo not drawn) [Lenalidomide, reference compound], for which it took 17.9 ± 1.7 µM to reach half-maximal inhibition (IC50).
On the same count and under the same terms, the value for `CC1CCCC(C)N1Cc1cccc(C(=O)NC2CCC(=O)NC2=O)c1` (stereo not drawn) [MGD-A6, 3-((2,6-dimethylpiperidin-1-yl)methyl)-N-(2,6-dioxopiperidin-3-yl)benzamide] was 3.44 ± 0.33 µM; that for `O=C1CCC(NC(=O)c2cccc(CNC3CC3)c2)C(=O)N1` (stereo not drawn) [MGD-A1, 3-((cyclopropylamino)methyl)-N-(2,6-dioxopiperidin-3-yl)benzamide] was 7.34 ± 0.7 µM.
Compound `O=C1CCC(N2C(=O)c3ccccc3C2=O)C(=O)N1` (stereo not drawn) [Thalidomide, reference compound] registered an IC50 of 26.5 ± 2.52 µM.
Regarding `O=C1CCC(NC(=O)c2cccc(C(=O)N3CCSCC3)c2)C(=O)N1` (stereo not drawn) [MGD-A15, N-(2,6-dioxopiperidin-3-yl)-3-(thiomorpholine-4-carbonyl)benzamide], it took 4.45 ± 0.42 µM to reach half-maximal inhibition (IC50).
In the case of `CC1CCN(Cc2cccc(C(=O)NC3CCC(=O)NC3=O)c2)CC1` (stereo not drawn) [MGD-A5, N-(2,6-dioxopiperidin-3-yl)-3-((4-methylpiperidin-1-yl)methyl)benzamide], the IC50 came to 2.03 ± 0.19 µM.
`CN1CCN(Cc2cccc(C(=O)NC3CCC(=O)NC3=O)c2F)CC1` (stereo not drawn) [MGD-C2, N-(2,6-dioxopiperidin-3-yl)-2-fluoro-3-((4-methylpiperazin-1-yl)methyl)benzamide] registered an IC50 of 0.54 ± 0.05 µM.
Same read-out and setting: the value for `O=C1CCC(NC(=O)c2cccc(CN3CCSCC3)n2)C(=O)N1` (stereo not drawn) [MGD-B5, N-(2,6-dioxopiperidin-3-yl)-6-(thiomorpholinomethyl)picolinamide] was 1.58 ± 0.47 µM.
`O=C1CCC(NC(=O)c2cccc(CN3CCCC3=O)n2)C(=O)N1` (stereo not drawn) [MGD-B6, N-(2,6-dioxopiperidin-3-yl)-6-((2-oxopyrrolidin-1-yl)methyl)picolinamide] yielded an IC50 of 3.34 ± 0.32 µM.
In turn, `CC1CCCC(C)N1C(=O)c1cccc(C(=O)NC2CCC(=O)NC2=O)c1` (stereo not drawn) [MGD-A13, 3-(2,6-dimethylpiperidine-1-carbonyl)-N-(2,6-dioxopiperidin-3-yl)benzamide] came in with an IC50 of 9.26 ± 0.88 µM.
With `CN1CCN(Cc2cccc(C(=O)NC3CCC(=O)NC3=O)n2)C(=O)C1` (stereo not drawn) [MGD-B8, N-(2,6-dioxopiperidin-3-yl)-6-((4-methyl-2-oxopiperazin-1-yl)methyl)picolinamide], the IC50 came to 1.33 ± 0.13 µM.
For the compound `CCN1CCN(Cc2cccc(C(=O)NC3CCC(=O)NC3=O)c2)CC1` (stereo not drawn) [MGD-A8, N-(2,6-dioxopiperidin-3-yl)-3-((4-ethylpiperazin-1-yl)methyl)benzamide], the IC50 was determined as 0.8 ± 0.1 µM.
Same read-out and setting: to `O=C1CCC(NC(=O)c2cccc(CN3CCOCC3)c2F)C(=O)N1` (stereo not drawn) [MGD-C3, N-(2,6-dioxopiperidin-3-yl)-2-fluoro-3-(morpholinomethyl)benzamide] belongs 0.93 ± 0.048 µM; to `O=C1CCC(NC(=O)c2cccc(CN3CCSCC3)c2F)C(=O)N1` (stereo not drawn) [MGD-C4, N-(2,6-dioxopiperidin-3-yl)-2-fluoro-3-(thiomorpholinomethyl)benzamide], 2.43 ± 0.33 µM.
Compound `O=C1CCC(NC(=O)c2cccc(CN3CCCCC3)n2)C(=O)N1` (stereo not drawn) [MGD-B2, N-(2,6-dioxopiperidin-3-yl)-6-(piperidin-1-ylmethyl)picolinamide] showed an IC50 of 6.78 ± 0.65 µM.

The next assay concerns NCI-H929. As to the kind of experiment: Cell viability (CCK-8) assay. The format is cell-based. To be noted: Homo sapiens, NCI-H929, 96 h. As for the experimental part: as §1
Take `Nc1cccc2c1CN(C1CCC(=O)NC1=O)C2=O` (stereo not drawn) [Lenalidomide, reference compound]: the IC50 is 7.36 ± 0.7 µM.
`CC1CCCC(C)N1Cc1cccc(C(=O)NC2CCC(=O)NC2=O)c1` (stereo not drawn) [MGD-A6, 3-((2,6-dimethylpiperidin-1-yl)methyl)-N-(2,6-dioxopiperidin-3-yl)benzamide] showed an IC50 of 3.02 ± 0.38 µM.
On the same count and under the same terms, the value for `O=C1CCC(NC(=O)c2cccc(CNC3CC3)c2)C(=O)N1` (stereo not drawn) [MGD-A1, 3-((cyclopropylamino)methyl)-N-(2,6-dioxopiperidin-3-yl)benzamide] was 10.3 ± 0.98 µM.
The compound `O=C1CCC(N2C(=O)c3ccccc3C2=O)C(=O)N1` (stereo not drawn) [Thalidomide, reference compound] yielded an IC50 of 9.86 ± 0.94 µM.
For `O=C1CCC(NC(=O)c2cccc(C(=O)N3CCSCC3)c2)C(=O)N1` (stereo not drawn) [MGD-A15, N-(2,6-dioxopiperidin-3-yl)-3-(thiomorpholine-4-carbonyl)benzamide], the IC50 is 6.9 ± 0.66 µM.
In the case of `CC1CCN(Cc2cccc(C(=O)NC3CCC(=O)NC3=O)c2)CC1` (stereo not drawn) [MGD-A5, N-(2,6-dioxopiperidin-3-yl)-3-((4-methylpiperidin-1-yl)methyl)benzamide], the IC50 was determined as 2.88 ± 0.28 µM.
As for `CN1CCN(Cc2cccc(C(=O)NC3CCC(=O)NC3=O)c2F)CC1` (stereo not drawn) [MGD-C2, N-(2,6-dioxopiperidin-3-yl)-2-fluoro-3-((4-methylpiperazin-1-yl)methyl)benzamide], the IC50 is 0.77 ± 0.04 µM.
In turn, `O=C1CCC(NC(=O)c2cccc(CN3CCSCC3)n2)C(=O)N1` (stereo not drawn) [MGD-B5, N-(2,6-dioxopiperidin-3-yl)-6-(thiomorpholinomethyl)picolinamide] displayed an IC50 of 2.77 ± 0.36 µM.
Turning to `O=C1CCC(NC(=O)c2cccc(CN3CCCC3=O)n2)C(=O)N1` (stereo not drawn) [MGD-B6, N-(2,6-dioxopiperidin-3-yl)-6-((2-oxopyrrolidin-1-yl)methyl)picolinamide], the IC50 turned out to be 4.89 ± 0.47 µM.
Consider `CC1CCCC(C)N1C(=O)c1cccc(C(=O)NC2CCC(=O)NC2=O)c1` (stereo not drawn) [MGD-A13, 3-(2,6-dimethylpiperidine-1-carbonyl)-N-(2,6-dioxopiperidin-3-yl)benzamide], for which it took 10.3 ± 0.98 µM to reach half-maximal inhibition (IC50).
For the compound `CN1CCN(Cc2cccc(C(=O)NC3CCC(=O)NC3=O)n2)C(=O)C1` (stereo not drawn) [MGD-B8, N-(2,6-dioxopiperidin-3-yl)-6-((4-methyl-2-oxopiperazin-1-yl)methyl)picolinamide], the IC50 was 1.77 ± 0.17 µM.
The compound `CCN1CCN(Cc2cccc(C(=O)NC3CCC(=O)NC3=O)c2)CC1` (stereo not drawn) [MGD-A8, N-(2,6-dioxopiperidin-3-yl)-3-((4-ethylpiperazin-1-yl)methyl)benzamide] returned an IC50 of 0.9 ± 0.13 µM.
The same measure, in the same setting: the value for `O=C1CCC(NC(=O)c2cccc(CN3CCOCC3)c2F)C(=O)N1` (stereo not drawn) [MGD-C3, N-(2,6-dioxopiperidin-3-yl)-2-fluoro-3-(morpholinomethyl)benzamide] was 1.98 ± 0.19 µM; that for `O=C1CCC(NC(=O)c2cccc(CN3CCSCC3)c2F)C(=O)N1` (stereo not drawn) [MGD-C4, N-(2,6-dioxopiperidin-3-yl)-2-fluoro-3-(thiomorpholinomethyl)benzamide] was 1.79 ± 0.27 µM; that for `O=C1CCC(NC(=O)c2cccc(CN3CCCCC3)n2)C(=O)N1` (stereo not drawn) [MGD-B2, N-(2,6-dioxopiperidin-3-yl)-6-(piperidin-1-ylmethyl)picolinamide] was 8.5 ± 0.81 µM.

The next assay concerns Ocl-Ly3. As to the kind of experiment: Cell viability (CCK-8) assay. It counts as cell-based. To be noted: 96 h, CCK-8. As for the experimental part: as §1
Compound `Nc1cccc2c1CN(C1CCC(=O)NC1=O)C2=O` (stereo not drawn) [Lenalidomide, reference compound] gave an IC50 of 27.6 ± 2.63 µM.
`CC1CCCC(C)N1Cc1cccc(C(=O)NC2CCC(=O)NC2=O)c1` (stereo not drawn) [MGD-A6, 3-((2,6-dimethylpiperidin-1-yl)methyl)-N-(2,6-dioxopiperidin-3-yl)benzamide] registered an IC50 of 5.9 ± 0.56 µM.
Regarding `O=C1CCC(NC(=O)c2cccc(CNC3CC3)c2)C(=O)N1` (stereo not drawn) [MGD-A1, 3-((cyclopropylamino)methyl)-N-(2,6-dioxopiperidin-3-yl)benzamide], the IC50 was over 33 µM.
For the compound `O=C1CCC(N2C(=O)c3ccccc3C2=O)C(=O)N1` (stereo not drawn) [Thalidomide, reference compound], the IC50 was over 33 µM.
`O=C1CCC(NC(=O)c2cccc(C(=O)N3CCSCC3)c2)C(=O)N1` (stereo not drawn) [MGD-A15, N-(2,6-dioxopiperidin-3-yl)-3-(thiomorpholine-4-carbonyl)benzamide]: the half-maximal inhibitory concentration (IC50) turned out to be 9.43 ± 0.9 µM.
The same measure, in the same setting: to `CC1CCN(Cc2cccc(C(=O)NC3CCC(=O)NC3=O)c2)CC1` (stereo not drawn) [MGD-A5, N-(2,6-dioxopiperidin-3-yl)-3-((4-methylpiperidin-1-yl)methyl)benzamide] belongs 4.03 ± 0.38 µM.
`CN1CCN(Cc2cccc(C(=O)NC3CCC(=O)NC3=O)c2F)CC1` (stereo not drawn) [MGD-C2, N-(2,6-dioxopiperidin-3-yl)-2-fluoro-3-((4-methylpiperazin-1-yl)methyl)benzamide] yielded an IC50 of 1.64 ± 0.37 µM.
Compound `O=C1CCC(NC(=O)c2cccc(CN3CCSCC3)n2)C(=O)N1` (stereo not drawn) [MGD-B5, N-(2,6-dioxopiperidin-3-yl)-6-(thiomorpholinomethyl)picolinamide] yielded an IC50 of 4.68 ± 2.44 µM.
The compound `O=C1CCC(NC(=O)c2cccc(CN3CCCC3=O)n2)C(=O)N1` (stereo not drawn) [MGD-B6, N-(2,6-dioxopiperidin-3-yl)-6-((2-oxopyrrolidin-1-yl)methyl)picolinamide] yielded an IC50 of 27.5 ± 2.62 µM.
Compound `CC1CCCC(C)N1C(=O)c1cccc(C(=O)NC2CCC(=O)NC2=O)c1` (stereo not drawn) [MGD-A13, 3-(2,6-dimethylpiperidine-1-carbonyl)-N-(2,6-dioxopiperidin-3-yl)benzamide] gave an IC50 of 17.2 ± 1.64 µM.
Regarding `CN1CCN(Cc2cccc(C(=O)NC3CCC(=O)NC3=O)n2)C(=O)C1` (stereo not drawn) [MGD-B8, N-(2,6-dioxopiperidin-3-yl)-6-((4-methyl-2-oxopiperazin-1-yl)methyl)picolinamide], the IC50 amounted to 8.43 ± 0.8 µM.
`CCN1CCN(Cc2cccc(C(=O)NC3CCC(=O)NC3=O)c2)CC1` (stereo not drawn) [MGD-A8, N-(2,6-dioxopiperidin-3-yl)-3-((4-ethylpiperazin-1-yl)methyl)benzamide]: 4.12 ± 0.39 µM corresponded to half-maximal inhibition (IC50).
`O=C1CCC(NC(=O)c2cccc(CN3CCOCC3)c2F)C(=O)N1` (stereo not drawn) [MGD-C3, N-(2,6-dioxopiperidin-3-yl)-2-fluoro-3-(morpholinomethyl)benzamide] registered an IC50 of 2.39 ± 0.23 µM.
The same measure, in the same setting: to `O=C1CCC(NC(=O)c2cccc(CN3CCSCC3)c2F)C(=O)N1` (stereo not drawn) [MGD-C4, N-(2,6-dioxopiperidin-3-yl)-2-fluoro-3-(thiomorpholinomethyl)benzamide] belongs 5.01 ± 0.48 µM; to `O=C1CCC(NC(=O)c2cccc(CN3CCCCC3)n2)C(=O)N1` (stereo not drawn) [MGD-B2, N-(2,6-dioxopiperidin-3-yl)-6-(piperidin-1-ylmethyl)picolinamide], over 33 µM.

As a reminder, the IC50 is the concentration that gives 50% inhibition. Read a low IC50 as greater potency.
